Data taken from US20230123334A1, “AMINO LIPID COMPOUND, PREPARATION METHOD THEREFOR, AND APPLICATION THEREOF” (SHENZHEN SHENXIN BIOTECHNOLOGY CO., LTD., priority 2020, published 2023).

Key:
[1] = tested on: HEK293 cells; test: Preliminary screening as mRNA vectors, EGFP mRNA transfection of HEK293 cells; type: cell-based; conditions: HEK293 cells, 96-well plates, EGFP mRNA 50 ng per well; percentage of GFP fluorescent cells relative to total number of cells (Hoechst)
Procedure, shortened: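 Each well of HEK293 cells received 50 ng of EGFP mRNA. Efficiency was expressed as percent GFP-expressing cells over Hoechst-defined total cell number.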

[2] = tested on: HEK293 cells; test: Preliminary screening as DNA vectors, GFP transfection of HEK293 cells; type: cell-based; conditions: HEK293 cells; lipid/DOPE liposome with 75 ng plasmid DNA (psin-EGFP-IRES-Puro); number of cells expressing GFP divided by total number of nuclei (Hoechst)
Procedure, shortened: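 Lipid + DOPE liposomes (NaOAc, pH 5.6) complexed w/ 75 ng psin-EGFP-IRES-Puro, 30 min RT; added to 3-5×10^4 HEK293/well, 37° C. Hoechst 0.2 μg/mL at 20-24 h, imaged after further 20-24 h. Efficiency = GFP+ cells / total nuclei.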

Structure (SMILES)	Absolute mRNA transfection efficiency in HEK293 cells [1]	Absolute DNA transfection efficiency in HEK293 cells [2]
CCCCCCNc1nc(NCCCCCC)nc(NCCCN2CCOCC2)n1 [Compound N6N6D8]	0.0%	0.0%
CCCCCCCCCCCCCCCCCCNc1nc(NCCCN2CCOCC2)nc(N(CCCCCCCCCCCC)CCCCCCCCCCCC)n1 [N18^2N12D8]	2.3%	0.4%
CCCCCCCCCCCSc1nc(NCC2CCN(C)CC2)nc(SCCCCCCCCC)n1 [Compound S9S11D10]	88.8%	32.8%
CCCCCCCCCNc1nc(NCCCCCCC)nc(NCCCN2CCN(C)CC2)n1 [Compound N7N9D9]	0.0%	0.7%
CCCCCCCCCCCCCCCCCCSc1nc(NCC2CCN(C)CC2)nc(SCCCCCCCCCCC)n1 [Compound S11S18D10]	92.0%	20.9%
CCCCCCCCCCCCCCCNc1nc(NCCCN(C)C)nc(N(CCCCCCCCCCCC)CCCCCCCCCCCC)n1 [N15^2N12D6]	9.0%	6.3%
CCCCCCCCCCCSc1nc(NCCN(CC)CC)nc(SCCCCCCCCCCC)n1 [Compound S11S11D7]	0.0%	0.0%
CCCCCCCCCCCCCNc1nc(NCCCCCCC)nc(NCCCN2CCN(C)CC2)n1 [Compound N7N13D9]	0.1%	1.3%
CCCCCCCCCCCCCCCCNc1nc(NCCCCCC)nc(NCCCN2CCOCC2)n1 [Compound N6N16D8]	0.0%	0.6%
CCCCCCCCCCCSc1nc(NCCN2CCCCC2)nc(SCCCCCCCCC)n1 [Compound S9S11D4]	4.1%	15.2%
CCCCCCCCCCCCNc1nc(NCCCCCCCC)nc(NCCN(C)C)n1 [Compound N8N12D1]	0.5%	0.6%
CCCCCCCCCCCCCNc1nc(NCCCCCCC)nc(NCC2CCN(C)CC2)n1 [Compound N7N13D10]	1.6%	1.6%
CCCCCCCCCCCCCCCCSc1nc(NCCCN2CCN(C)CC2)nc(SCCCCCCCCCCCCCCC)n1 [Compound S15S16D9]	0.5%	0.3%
CCCCCCCCCCCCNc1nc(NCCCCCCCC)nc(NCCCN2CCOCC2)n1 [Compound N8N12D8]	0.0%	0.0%
CCCCCCCCCCCCCCCNc1nc(NCCCCCCCCCCC)nc(NCCCN(C)C)n1 [Compound N11N15D6]	0.3%	1.6%
CCCCCCCCCCCCNc1nc(NCCN(CC)CC)nc(N(CCCCCCCCCCCC)CCCCCCCCCCCC)n1 [N12^2N12D7]	2.0%	2.2%
CCCCCCCCCCCCCCCCSc1nc(NCCCN2CCN(C)CC2)nc(SCCCCCCCCCCC)n1 [Compound S11S16D9]	16.4%	3.6%
CCCCCCCCCCCSc1nc(NCCCN2CCOCC2)nc(SCCCCCCCCC)n1 [Compound S9S11D8]	24.4%	21.8%
CCCCCCCCCCCCCNc1nc(NCCCCCCC)nc(NCCN2CCOCC2)n1 [Compound N7N13D2]	0.0%	0.1%
CCCCCCCCCCCCNc1nc(NCCCCCCCCCCC)nc(NCCN2CCCCC2)n1 [Compound N11N12D4]	1.2%	0.0%
CCCCCCCCCCCCCCCNc1nc(NCCCCCCC)nc(NCCCN(C)C)n1 [Compound N7N15D6]	1.2%	1.6%
CCCCCCCCCCCCCCCNc1nc(NCCCCCCCCC)nc(NCCN2CCCCC2)n1 [Compound N9N15D4]	0.6%	0.0%
CCCCCCCCCCCCCCCNc1nc(NCCCCCC)nc(NCCCN2CCOCC2)n1 [Compound N6N15D8]	0.0%	0.3%
CCCCCCCCCCCCCCSc1nc(NCCCN2CCOCC2)nc(SCCCCCCCCCCCCCC)n1 [Compound S14S14D8]	0.0%	0.0%

Structure (SMILES)	Absolute mRNA transfection efficiency in HEK293 cells [1]	Absolute DNA transfection efficiency in HEK293 cells [2]
CCCCCCCCCCCCSc1nc(NCCN(CC)CC)nc(SCCCCCCCCCCCC)n1 [Compound S12S12D7]	1.3%	3.3%
CCCCCCCCCNc1nc(NCCCCCCCCC)nc(NCCN2CCN(C)CC2)n1 [Compound N9N9D5]	0.1%	0.0%
CCCCCCCCCCCCCNc1nc(NCCCCCCCC)nc(NCC2CCN(C)CC2)n1 [Compound N8N13D10]	1.9%	2.1%
CCCCCCCCCCCCN(CCCCCCCCCCCC)c1nc(NCCCCCCC)nc(NCCCN2CCOCC2)n1 [N7^2N12D8]	2.7%	1.6%
CCCCCCCCCCCCCCCCSc1nc(NCCCN(C)C)nc(SCCCCCCCC)n1 [Compound S8S16D6]	61.0%	33.0%
CCCCCCCCCCCCCCCNc1nc(NCCCCCCCCC)nc(NCCN(C)C)n1 [Compound N9N15D1]	2.2%	0.5%
CCCCCCCCCCCCCCCCSc1nc(NCCN2CCCC2)nc(SCCCCCCCCCCCCCCC)n1 [Compound S15S16D3]	0.2%	0.1%
CCCCCCCCCCCCCCCCNc1nc(NCCCCCCCCCCCCC)nc(NCCN2CCN(C)CC2)n1 [Compound N13N16D5]	0.4%	0.0%
CCCCCCCCCCCCN(CCCCCCCCCCCC)c1nc(NCCN2CCN(C)CC2)nc(N(CCCCCCCCCCCC)CCCCCCCCCCCC)n1 [2N12^2N12D5]	2.7%	0.0%
CCCCCCCCCCCCCCCCCCNc1nc(NCCCCCCCC)nc(NCCCN2CCN(C)CC2)n1 [Compound N8N18D9]	0.0%	1.2%
CCCCCCCCCCCCCCCSc1nc(NCCN(CC)CC)nc(SCCCCCCCCCCCCCCC)n1 [Compound S15S15D7]	0.5%	0.6%
CCCCCCCCCCCCN(CCCCCCCCCCCC)c1nc(NCCCCCCCCC)nc(NCCN2CCCCC2)n1 [N9^2N12D4]	0.4%	0.0%
CCCCCCCCCCCNc1nc(NCCCCCCCCCCC)nc(NCCCN2CCN(C)CC2)n1 [Compound N11N11D9]	0.3%	0.0%
CCCCCCCCCCCCCCCNc1nc(NCCCCCCCCCCCCC)nc(NCCCN2CCN(C)CC2)n1 [Compound N13N15D9]	0.5%	0.2%
CCCCCCCCCCCCCCCCSc1nc(NCCN2CCCC2)nc(SCCCCCCCCCCCC)n1 [Compound S12S16D3]	0.1%	2.0%
CCCCCCCCCCCCCCCNc1nc(NCCCCCCCC)nc(NCCN2CCCCC2)n1 [Compound N8N15D4]	0.0%	0.5%
CCCCCCCCCCCCCNc1nc(NCCCCCC)nc(NCCN2CCN(C)CC2)n1 [Compound N6N13D5]	0.0%	0.0%
CCCCCCCCCCCCN(CCCCCCCCCCCC)c1nc(NCCCCCCC)nc(NCCN2CCN(C)CC2)n1 [N7^2N12D5]	2.4%	0.9%
CCCCCCCCCCCCCCCCSc1nc(NCCN2CCOCC2)nc(SCCCCCCCC)n1 [Compound S8S16D2]	0.2%	15.7%
CCCCCCCCCCCCCCCCCCNc1nc(NCCCCCCCCCCCCCCCCCC)nc(NCCN2CCOCC2)n1 [Compound N18N18D2]	0.0%	0.0%
CCCCCCCCCCCCCCSc1nc(NCCCN(C)C)nc(SCCCCCCCC)n1 [Compound S8S14D6]	79.5%	16.2%
CCCCCCCCCCSc1nc(NCCN(C)C)nc(SCCCCCCCCCC)n1 [Compound S10S10D1]	0.7%	7.8%
CCCCCCCCCCCCCCCCCCNc1nc(NCCCCCCCCCCC)nc(NCC2CCN(C)CC2)n1 [Compound N11N18D10]	1.6%	0.2%
